Data from patent publication US20020136817A1 (priority 1999, published 2002).
Structures can show the parent of a compound that is named as a salt.

Legend:
calcium kidney stones = assay: Urinary risk of forming calcium kidney stones in individuals with oxalocalcium kidney stones, before and 15 days after treatment start; assay type: in vivo, human; details: for drop of the risk of forming calcium stones: 15 days after treatment start, citrate 6.48 g/day (Group II, potassium citrate tablets), phytate 120 mg/day (Group III, dietetic supplement)
Experimental: These individuals have been divided into three groups: 19 individuals with kidney stones (Group I), 38 individuals with kidney stones (Group II) and 17 individuals with kidney stones (Group III). The urinary risk to form calcium kidney stones was evaluated for each individual before being subjected to any pharmacological treatment. […] 15 days after treatment starting, the urinary risk of forming calcium kidney stones was evaluated again for each individual.

[1] = cited from earlier work

Row | effect on urine pH (calcium kidney stones; treatment of calcium kidney stones, compared with citrate) | SMILES | drop of the risk of forming calcium stones (calcium kidney stones) [%] | levels of phytates in urine and blood without intake ([1]; after 10 days without a phytate intake) | maximum urinary excretions as share of the total intake ([1]; diet supplemented with products rich in phytates) | intake above which the amount excreted in urine does not increase ([1]; dose-dependent urinary excretion)
1 |  | O=C(O)CC(O)(CC(=O)O)C(=O)O [citrate, potassium citrate, reference compound] | 52 |  |  | 
2 | does not cause increases of the urine pH | O=P(O)(O)O[C@H]1[C@H](OP(=O)(O)O)[C@@H](OP(=O)(O)O)[C@H](OP(=O)(O)O)[C@@H](OP(=O)(O)O)[C@H]1OP(=O)(O)O [phytate, inositol hexaphosphate] | 50 | drop to practically undetectable values | 1-5% | 20.9 mg/kg of body weight
